A short description of data set [1]: MTT cytotoxicity assay, KB. The class given is cell-based. As to conditions: human, means ± SD of three replicates. The method, then: (§1) The cancer cells were cultured in Dulbecco’s Modified Eagle’s Medium with 10% Fetal Bovine Serum, 1% penicillin and streptomycin, and 1% L-glutamine at 37 °C in a 5% CO2 environment. The tested compounds were added at concentrations ranging from 0.5 to 128 μg/mL by dissolving in DMSO (20 mg/mL) and incubated for a further 72 h in the identical condition. After the treatment, each well was filled with an MTT solution (10 μL, 5 mg/mL) of phosphate buffer, which was left to stand for 4 h until intracellular purple formazan crystals appeared. The MTT was removed and a 100 μL DMSO solution was added. The blank contained only a medium without any cells and MTT, as well as the solubilizing solution. The solution’s optical density (OD) at 540 nm was recorded on a BIOTEK reader. All experiments were carried out in triplicate for three independent experiments. IC50 values were computed graphically using inhibition curves.
On the technique in general: Tetrazolium dyes change colour on reduction, which living cells bring about.

Data set [2] can be described thus: MTT cytotoxicity assay, Hep G2. The class given is cell-based. Particulars: human, means ± SD of three replicates. How it is done:
as §1

A short description of data set [3]: MTT cytotoxicity assay, MCF7. The data set is classed as cell-based. Particulars: human, means ± SD of three replicates. How it is done:
as §1

Another data set addresses α-glucosidase. More on the design: method as in doi:10.1016/S0031-9422(99)00314-3. As to conditions: cited from earlier work.
Another data set has as its system Hep G2 cell line. More on the design: method as in PMID 29116937, doi:10.1016/j.phytol.2019.05.003. As to conditions: read-out: Cytotoxicity IC50, Hep G2 (previous research); cited from earlier work.
The next data set relates to MCF7 cell line. Particulars: cited from earlier work.
In another data set the test system is normal Vero cell line. The arrangement: method as in doi:10.1007/s00044-017-1843-8. Particulars: cited from earlier work.
For another data set, the system named is KB cell line. More on the design: method as in doi:10.1016/j.phytol.2012.09.007. As to conditions: read-out: Cytotoxicity IC50, KB (previous research); cited from earlier work.
Where [4] appears, read: MCF-7 cells (human breast adenocarcinoma).
Setting [5] is: read-out: Cytotoxicity IC50, MCF7 (previous research).

Read-outs that look alike come from different tables or passages of the source.

The text below walks through data of article PMC9268484, “New Flavonoid Derivatives from Melodorum fruticosum and Their α-Glucosidase Inhibitory and Cytotoxic Activities” (Molecules, 2022).

What is called IC50 is the midpoint of a concentration-inhibition curve.

On to `COc1cc2c(c(O)c1OC)C(=O)C[C@@H](c1ccccc1)O2` [Compound 6, onysilin], for which the IC50 at 72 h in data set [1], in data set [2] and in data set [3] was above 100 µM throughout.
As for `CC(C)=CCc1cc2c(c(O)c1O)C(=O)C[C@@H](c1ccccc1)O2` [Compound 3, melodorone C], the concentration for half-maximal inhibition (IC50) at 72 h in data set [3] (setting [4]) is above 100 µM.
For `O=c1cc(-c2ccccc2)oc2cc(O)cc(O)c12` [Compound 5, chrysin], the IC50 is 5.7 µM on α-glucosidase (read-out: α-Glucosidase inhibition IC50 (previous research)), 50.6 µM with Hep G2 cell line and 37.2 µM with MCF7 cell line (setting [5]). In addition, the “Cytotoxicity against normal Vero cell line” value in the data set with normal Vero cell line was “no cytotoxicity”.
Regarding `COc1cc(O)c2c(=O)cc(-c3ccccc3)oc2c1` [Compound 4, tectochrysin], the “α-Glucosidase inhibition (previous research, in words)” value in the data set on α-glucosidase is given as “no α-glucosidase inhibition”. Moreover, the IC50 was 55.3 µM with KB cell line and 16.7 µM in the data set on MCF7 cell line (setting [5]).
In the case of `O=C1C[C@@H](c2ccccc2)Oc2cc(O)cc(O)c21` [Compound 7, pinocembrin], the concentration for half-maximal inhibition (IC50) at 72 h in data set [1] (KB cells (human epidermoid carcinoma)), in data set [2] (Hep G2 cells (human hepatocellular carcinoma)) and in data set [3] (setting [4]) was above 100 µM each time. Further, the “α-Glucosidase inhibition (previous research, in words)” value in the data set with α-glucosidase is recorded as “no α-glucosidase inhibition”. Also, the concentration for half-maximal inhibition (IC50) in the data set on MCF7 cell line (48 h, read-out: Cytotoxicity IC50, MCF7, 48 h) was 226 µM; in the data set with MCF7 cell line (72 h, read-out: Cytotoxicity IC50, MCF7, 72 h), 108 µM. Further, the “Cytotoxicity against normal Vero cell line” value in the data set on normal Vero cell line was “no cytotoxicity”.
